Laboratory results as given in patent US20210330611A1, “THERAPY FOR NEUROLOGICAL DISEASES/DISORDERS” (priority 2020, published 2021).
Structures can show the parent of a compound that is named as a salt. Where two headings read alike, the source gives them in different places.

Columns and labels:
[1] = system: fibrin- and LPS-induced microglia activation; assay: cells; assay type: cell-based, rat
[2] = system: LPS-induced microglia activation; assay: Image-based assay of LPS-induced microglia activation (HTS and dose response); assay type: cell-based, rat; conditions: for inhibition at 10 µM: Rattus norvegicus, Microglia, read-out: LPS % inhibition
[3] = system: fibrin-induced microglia activation; assay: Image-based assay of fibrin-induced microglia activation (HTS and dose response); assay type: cell-based, rat; conditions: primary microglia HTS, fibrin stimulation; for inhibition at 10 µM: Rattus norvegicus, Microglia, read-out: Fibrin % inhibition
[4] = system: primary rat microglia; assay: Cell toxicity (dead cells, size <150 μm2) in coated fibrin (cFib) assay; conditions: primary microglia HTS;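 also: share of dead cells sized under 150 µm2 at 10 µM in fibrin-stimulated microglia HTS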
[5] = system: primary rat microglia
[6] = classification by fibrin and LPS inhibition, HTS at 10 μM
[7] = primary microglia HTS, LPS stimulation, compounds at 10 μM
[8] = fibrin assay, dead cells (size <150 μm2), compounds at 10 μM
[9] = classification by fibrin and LPS inhibition in HTS
[10] = cell size >800 μm2 as marker of activation
[11] = fibrin stimulation, cell size <150 μm2 as marker of toxicity
[12] = quadrant by fibrin and LPS inhibition, HTS at 10 μM
[13] = fibrin assay, dead cells (size <150 μm2)

Compound	Quadrant (FIG. 5b) [1, 6]	inhibition at 10 µM [2, 7]	inhibition at 10 µM ([3]; compounds at 10 μM)	Fibrin % cell toxicity [4, 8]	LPS % cell toxicity ([5]; rat)	Quadrant (FIG. 5b) [1, 9]	Fibrin % cell toxicity [4, 11]	Quadrant (FIG. 5b) [1, 12]	Fibrin % cell toxicity [4, 13]	other results
CCOC(=O)COc1ccc2c(=O)cc(-c3ccccc3)oc2c1 [Efloxate]	Q4	-1%	-8%	1%	0%					
C[N+](C)(C)CCCCCCCCCC[N+](C)(C)C [Decamethonium]	Q4	17%	1%	0%	0%					
CC1=C(C)C(=O)C(C(CCCCCC(=O)O)c2ccccc2)=C(C)C1=O (stereo not shown) [Seratrodast]					0%	Q4	1%			inhibition at 10 µM ([2]; 48 h): 14%; inhibition at 10 µM [3, 10]: 20%
O=C(Nc1ccccc1)OCC(CN1CCCCC1)OC(=O)Nc1ccccc1 (stereo not shown) [Diperodon Hydrochloride]	Q4	26%	42%	1%	1%					
CCOP(=S)(OCC)Oc1cc(C)nc(C(C)C)n1 [Diazinon, Dimpylate]	Q4			1%						LPS % inhibition [2, 7]: −8%; Fibrin % inhibition ([3]; compounds at 10 μM): −7%; LPS % cell toxicity [5]: 0%
CN1CCC(=C2c3ccccc3Sc3ccccc32)CC1 [Pimethixene Maleate]		92%	112%		2%			Q2	6%	
O=C(Nc1ccccc1)c1ccccc1O [Salicylanilide]					0%	Q4	1%			inhibition at 10 µM ([2]; 48 h): 13%; inhibition at 10 µM [3, 10]: 1%
C[C@]12CC[C@@H]3c4ccc(OC(=O)N(CCCl)CCCl)cc4CC[C@H]3[C@@H]1CC[C@@H]2O [Estramustine]	Q4	16%	8%	1%	1%					
C[C@]12C=CC(=O)C=C1CC[C@@H]1[C@@H]2[C@@H](O)C[C@@]2(C)[C@H]1CC[C@]2(O)C(=O)COC(=O)CCC(=O)O [Prednisolone Hemisuccinate]		96%	106%		3%			Q2	3%	
O=C(O)c1cc(=O)c2c(OCC(O)COc3cccc4oc(C(=O)O)cc(=O)c34)cccc2o1 [Cromoglicic acid]	Q4	8%	-28%	0%	0%					
C[C@@](Cc1ccc(O)c(O)c1)(NN)C(=O)O [S-(−)-carbidopa, Carbidopa]						Q4	0%			LPS % inhibition [2]: 16%; Fibrin % inhibition [3, 10]: −91%; LPS % cell toxicity [5]: 0%
N=C(N)N1CCc2ccccc2C1 [Debrisoquin]	Q4	17%	8%	1%	0%					
O=C(O)CCCO [Sodium Oxybate]					0%	Q4	1%			inhibition at 10 µM ([2]; 48 h): 34%; inhibition at 10 µM [3, 10]: -5%
OC(CCN1CCCCC1)(c1ccccc1)c1ccccc1 [Pridinol]					0%	Q4	1%			inhibition at 10 µM ([2]; 48 h): 4%; inhibition at 10 µM [3, 10]: -18%
NS(=O)(=O)c1cc2c(cc1Cl)N=C(CSCc1ccccc1)NS2(=O)=O [Benzthiazide]		7%	-8%		0%			Q4	1%	
COc1ccc2c(c1)c(CC(=O)OCC(=O)O)c(C)n2C(=O)c1ccc(Cl)cc1 [Acemetacin]		17%	-16%		0%			Q4	1%	
CC(=O)CC(c1ccc([N+](=O)[O-])cc1)c1c(O)c2ccccc2oc1=O (stereo not shown) [Acenocoumarol, Acenocoumarin]								Q4	0%	LPS % inhibition [2, 7]: 14%; Fibrin % inhibition ([3]; compounds at 10 μM): −38%; LPS % cell toxicity [5]: 0%
CC(=O)Oc1cccc2c1C(=O)c1c(OC(C)=O)cc(C(=O)O)cc1C2=O [Diacerin]	Q4			1%						LPS % inhibition [2, 7]: 10%; Fibrin % inhibition ([3]; compounds at 10 μM): −30%; LPS % cell toxicity [5]: 0%

Compound	Quadrant (FIG. 5b) [1, 6]	inhibition at 10 µM [2, 7]	inhibition at 10 µM ([3]; compounds at 10 μM)	Fibrin % cell toxicity [4, 8]	LPS % cell toxicity ([5]; rat)	Quadrant (FIG. 5b) [1, 9]	Fibrin % cell toxicity [4, 11]	Quadrant (FIG. 5b) [1, 12]	Fibrin % cell toxicity [4, 13]	other results
O=C(O)c1cc(O)c2c(c1)[C@H]([C@H]1c3cc(C(=O)O)cc(O)c3C(=O)c3c(O[C@@H]4O[C@H](CO)[C@@H](O)[C@H](O)[C@H]4O)cccc31)c1cccc(O[C@@H]3O[C@H](CO)[C@@H](O)[C@H](O)[C@H]3O)c1C2=O [Sennoside A]						Q4	1%			LPS % inhibition [2]: 14%; Fibrin % inhibition [3, 10]: −10%; LPS % cell toxicity [5]: 0%
CCCCCCCCCCOc1cc2c(O)c(C(=O)OCC)cnc2cc1OCC [Decoquinate]	Q4	20%	7%	1%	1%					
CCN1CCC[C@H]1CNC(=O)c1c(OC)ccc(Br)c1OC [Remoxipride]					0%	Q4	1%			inhibition at 10 µM ([2]; 48 h): 3%; inhibition at 10 µM [3, 10]: -14%
CO[C@H]1/C=C/O[C@@]2(C)Oc3c(C)c(O)c4c(O)c(c5c(nc6cc(C)ccn65)c4c3C2=O)NC(=O)/C(C)=C\C=C\[C@H](C)[C@H](O)[C@@H](C)[C@@H](O)[C@@H](C)[C@H](OC(C)=O)[C@@H]1C [Rifaximin]					2%	Q4	0%			inhibition at 10 µM ([2]; 48 h): 22%; inhibition at 10 µM [3, 10]: 6%
CCOc1cc(C=O)ccc1O [Ethyl Vanillin]	Q4	18%	-15%	0%	0%					
CCOc1nc2cccc(C(=O)OCc3oc(=O)oc3C)c2n1Cc1ccc(-c2ccccc2-c2noc(=O)[nH]2)cc1 [Azilsartan medoxomil]		31%	5%		1%			Q4	0%	
O=C(CCCl)NCCc1ccccc1 [Fenaclon]	Q4	16%	8%	1%	0%					
CCCN1C[C@H](CSC)C[C@@H]2c3cccc4[nH]cc(c34)C[C@H]21 [Pergolide]					0%	Q4	0%			inhibition at 10 µM ([2]; 48 h): 16%; inhibition at 10 µM [3, 10]: -18%
CC(CC(C(N)=O)(c1ccccc1)c1ccccc1)N(C)C (stereo not shown) [Aminopentamide Sulfate]		12%	3%		0%			Q4	1%	
NC(=O)NC1NC(=O)NC1=O (stereo not shown) [Allantoin]		6%	-21%		0%			Q4	1%	
C=CCc1ccc(O)c(OC)c1 [Eugenol]	Q4	20%	37%	0%	0%					
CC(CN1c2ccccc2Sc2ccccc21)N(C)C (stereo not shown) [Promethazine]					0%	Q4	0%			inhibition at 10 µM ([2]; 48 h): 5%; inhibition at 10 µM [3, 10]: -30%
O=C(O)CCNC(=O)c1ccc(/N=N/c2ccc(O)c(C(=O)O)c2)cc1 [Balsalazide]		11%	-2%		0%			Q4	0%	
CCn1cc(C(=O)O)c(=O)c2cnc(N3CCCC3)nc21 [Piromidic Acid]					0%	Q4	1%			inhibition at 10 µM ([2]; 48 h): 7%; inhibition at 10 µM [3, 10]: -30%
CC(=O)OC1CN2CCC1CC2.Cl (stereo not shown) [Aceclidine Hydrochloride, Aceclidine]								Q4	1%	LPS % inhibition [2, 7]: 0%; Fibrin % inhibition ([3]; compounds at 10 μM): 2%; LPS % cell toxicity [5]: 0%
CCCCC(CC)COc1ccc(-c2nc(-c3ccc(OC)cc3)nc(-c3ccc(OCC(CC)CCCC)cc3O)n2)c(O)c1 (stereo not shown) [Bemotrizinol]								Q4	1%	LPS % inhibition [2, 7]: 16%; Fibrin % inhibition ([3]; compounds at 10 μM): −23%; LPS % cell toxicity [5]: 0%
O=C(Oc1ccccc1C(=O)O)c1ccccc1O [Salsalate]					1%	Q4	1%			inhibition at 10 µM ([2]; 48 h): 14%; inhibition at 10 µM [3, 10]: -22%
